The experiment deals with 5'-AMP-activated protein kinase catalytic subunit alpha-2 (Homo sapiens, UniProt P54646). In words: Enzyme-Linked Immunosorbent Assay: Compounds were assayed for their ability to activate AMPK using an enzyme-linked immunosorbent assay. Reagents and procedures for measuring AMPK activation are well known and kits for AMPK activation assays are commercially available.

SMILES strings stand for the structures. Bounds are passed on as bounds.

5'-AMP-activated protein kinase catalytic subunit alpha-2, sequence (P54646 whole entry): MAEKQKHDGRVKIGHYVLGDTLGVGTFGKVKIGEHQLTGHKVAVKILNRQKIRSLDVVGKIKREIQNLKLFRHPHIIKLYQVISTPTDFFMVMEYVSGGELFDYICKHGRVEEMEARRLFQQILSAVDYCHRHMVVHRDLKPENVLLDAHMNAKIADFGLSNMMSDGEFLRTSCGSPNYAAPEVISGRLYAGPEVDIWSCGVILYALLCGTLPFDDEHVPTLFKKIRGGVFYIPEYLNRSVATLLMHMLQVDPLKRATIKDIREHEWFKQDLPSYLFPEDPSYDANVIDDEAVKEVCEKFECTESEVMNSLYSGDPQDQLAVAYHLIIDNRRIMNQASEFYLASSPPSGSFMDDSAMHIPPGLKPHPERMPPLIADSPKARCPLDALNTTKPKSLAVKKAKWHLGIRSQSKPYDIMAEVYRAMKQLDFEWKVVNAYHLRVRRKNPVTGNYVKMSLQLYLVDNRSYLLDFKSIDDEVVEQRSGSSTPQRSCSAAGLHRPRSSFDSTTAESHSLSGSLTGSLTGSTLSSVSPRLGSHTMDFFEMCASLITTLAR

The EC50 is the concentration giving half of the maximal effect. A higher EC50 goes with a need for much substance. `O=C(Nc1ccc(-c2ccc([N+](=O)[O-])cc2)cc1)c1ccc(C(=O)N2CCN(Cc3ccc(F)cc3)CC2)cn1` came in with an EC50 of more than 10 µM.

As to `O=C(Nc1ccccc1-c1ccccc1)c1ccc(C(=O)N2CCN(Cc3ccc(F)cc3)CC2)cn1`, the concentration for a half-maximal effect (EC50) was more than 10 µM.

Source of the values: ChEMBL document CHEMBL5726250, “AMPK-activating heterocyclic compounds and methods for using the same” (2017).
